Common to all, as to test: DTP human tumour cell line panel, 48 h
Test [1] deals with HOP-92 NSCLC.
Test [2] relates to SNB-19 CNS.
Test [3] relates to RXF 393 renal.
Test [4] relates to ACHN renal.
In test [5] the test system is HOP-62 NSCLC.
The subject of test [6] is NCI-H522 lung.
Test [7] concerns HL-60(TB) leukemia.
Test [8] concerns U251 CNS.
For test [9], the system named is DMS 273 small cell lung.
The test system of test [10] is DLD-1 colon.

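Briefly, cells in 96-well plates were exposed to five compound concentrations for 48 h, and endpoints were estimated by linear interpolation. The concentration for 50% growth inhibition is given as GI50. TGI marks complete inhibition of growth.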

The term TGI denotes the concentration at which net growth stops. Low readings indicate more potent growth arrest, high ones less potent growth arrest. Usually GI50 stands for the concentration giving 50% growth inhibition.

As for `C=C(C(N)=O)c1ccc([N+](=O)[O-])o1`, the concentration for total growth inhibition (TGI) in test [1] is 19500 nM; in [2] it was more than 100000 nM; in [3] it was 9640 nM; in test [4], 12200 nM; in test [5], 46800 nM; in test [6], 4240 nM. The total growth inhibition concentration (TGI) in test [7] was 6120 nM; in test [8] it was 34600 nM.

Take `CN1CCN(C(=O)C(C)(C)c2ccc(C(=O)Nc3cn4cc(-c5ccncc5)ccc4n3)cc2)CC1`: the concentration for 50% growth inhibition (GI50) was 366 nM in test [1]; 239 nM in test [2]; 316 nM in [3]; 238 nM in [4]; 307 nM in [5]; 220 nM in test [6]. The values for the GI50 in [7] and in [8] were 371 nM and 332 nM, respectively. The TGI in test [1] was 7110 nM; in test [2], more than 100000 nM; in test [3], 1010 nM; in test [4] it was 1480 nM; in test [5], more than 53000 nM; in test [6] it was 13400 nM. The TGI in test [7] was 3550 nM; in [8], more than 100000 nM.

Regarding `N/N=C(/C(=O)Nc1cccc(Cl)c1)C(C(=O)c1ccc(O)cc1O)C1OC(=O)c2ccccc21` (stereo not given), the concentration for total growth inhibition (TGI) in test [2], in [4], in test [5], in test [9], in test [6] and in test [7] was more than 100000 nM each time. This compound registered a TGI in test [8] of more than 100000 nM.

As for `CC(=O)[CH-]C(=O)c1ccccc1.CC(=O)[CH-]C(=O)c1ccccc1.CC[O-].CC[O-].[Hf+4]`, the GI50 in test [10] was more than 100000 nM; in test [1], 36800 nM; in test [2], more than 100000 nM; in test [3], more than 100000 nM; in test [4], more than 100000 nM; in test [5], more than 100000 nM. For the same compound, the GI50 in [6], in test [7] and in [8] was more than 100000 nM in each case. Further, the TGI in [10], in test [1], in test [2], in test [3], in [4] and in test [5] was more than 100000 nM in each case. The TGI in test [6], in [7] and in [8] was more than 100000 nM throughout.

Take `O=C1c2cc3c(cc2[C@@H]2[C@H]1c1ccc([N+](=O)[O-])cc1C(=O)N2CCCBr)OCO3`: the GI50 was less than 10 nM in test [1]; less than 10 nM in test [2]; less than 10 nM in test [3]; less than 10 nM in test [4]; less than 10 nM in [5]; less than 26.6 nM in [6]. Also, the concentration for 50% growth inhibition (GI50) in test [7] and in test [8] was less than 10 nM in each case. Besides, the TGI in test [1] is less than 10 nM; in test [2], more than 100000 nM; in test [3] it was less than 10 nM; in test [4], less than 10 nM; in test [5], less than 48.6 nM; in test [7], more than 100000 nM.

As for `COc1ccc(C/C(C)=C(/c2ccc(OCCN3CCCCC3)cc2)c2ccc(OC(=O)NCc3ccccc3)cc2)cc1`, the GI50 in test [1] was 258 nM; in test [2] it was 459 nM; in test [3] it was 435 nM; in [4] it was 434 nM; in test [5] it was 419 nM; in test [6] it was 490 nM. Also, the 50% growth inhibitory concentration (GI50) was 391 nM in test [7] and 403 nM in [8]. In addition, the TGI in test [1] turned out to be 575 nM; in test [2], 852 nM; in [3], 876 nM; in test [4], 780 nM; in [5] it was 825 nM; in [6], 928 nM. Moreover, the figures for the total growth inhibition concentration (TGI) in [7] and in test [8] were 895 nM and 791 nM, respectively.

Regarding `O=C(Nc1cccc(-n2cc(-c3ccncc3)c(-c3ccc(Cl)c(O)c3)n2)c1)Nc1cc(C(F)(F)F)cc(C(F)(F)F)c1`, the GI50 in test [1] is 196 nM; in test [2], 979 nM; in test [3], 935 nM; in test [4] it was 669 nM; in test [5] it was 902 nM; in test [6], 707 nM. Also, the results for the GI50 in test [7] and in test [8] were 1130 nM and 484 nM, respectively. In addition, the total growth inhibition concentration (TGI) in test [1] worked out at 1150 nM; in [2], 6650 nM; in test [3] it was 2210 nM; in [4], 4200 nM; in [5], 1810 nM; in test [6] it was 2100 nM. For the same compound, the figures for the total growth inhibition concentration (TGI) in test [7] and in test [8] were 6630 nM and 1150 nM, respectively.

For the compound `C/C(=N/NC(=S)N1CCCCC1)c1ccccc1O`, the TGI was more than 31600 nM in test [1]; more than 31600 nM in [2]; more than 31600 nM in test [3]; more than 31600 nM in [4]; more than 100000 nM in test [5]; more than 31600 nM in [6]. For the same compound, the concentration for total growth inhibition (TGI) in [7] and in [8] was more than 31600 nM in each case.

As to `C#CC#CC#CC#CC#CC#CC#CC#CCC1OCC(COC(=O)O[C@@H](C(=O)O[C@H]2C[C@@]3(O)[C@@H](OC(=O)c4ccccc4)[C@@H]4[C@]5(OC(C)=O)CO[C@@H]5C[C@H](O)[C@@]4(C)C(=O)[C@H](OC(C)=O)C(=C2C)C3(C)C)[C@@H](NC(=O)c2ccccc2)c2ccccc2)O1` (stereo not given in full), the TGI in [1] is more than 33300 nM; in test [2], more than 33300 nM; in test [3], more than 8960 nM; in test [4], more than 33300 nM; in test [5], more than 33300 nM; in [6] it was more than 33300 nM. The compound also had a TGI in test [8] of more than 33300 nM. The GI50 was 612 nM in [2]; 599 nM in test [3]; more than 24700 nM in [4]; 775 nM in [5]; 166 nM in [6]; 99 nM in test [7]. Moreover, the concentration for 50% growth inhibition (GI50) in [8] was 162 nM.

As for `O=C1Nc2ccc(Br)cc2C1=Nc1cccnc1`, the TGI in test [1] was more than 100000 nM; in test [2] it was more than 100000 nM; in test [3], 29100 nM; in [4], 39300 nM; in [5] it was 74200 nM; in [6], 29500 nM. Further, the figures for the concentration for total growth inhibition (TGI) in test [7] and in test [8] were 48800 nM and 24800 nM, respectively.

The values above are taken from PubChem BioAssay (NCI).
